Active and inactive are the calls of the source. The calls are words filed in the database; no cut-off is given here.

The target in experiment [1] is Cholinesterase (Equus caballus) (UniProt P81908). In words: Inhibition of equine serum BChE using butyrylthiocholine iodide as substrate at 10 uM preincubated with enzyme for 5 mins prior to substrate addition measured after 5 mins by Ellman's method relative to control.
The target of experiment [2] is T1, Histamine H3 receptor (Homo sapiens, UniProt Q9Y5N1). The experiment can be described thus: Displacement of [125I]Iodoproxyfan from human histamine H3 receptor stably expressed in CHOK1 cells after 60 mins. It counts as cell-based. Background: Loss of bound radioactivity is the signal in a displacement assay; it reports binding, not function.
For experiment [3], the target named is Acetylcholinesterase (Electrophorus electricus) (UniProt O42275). In words: Inhibition of electric eel AChE using acetylthiocholine iodide as substrate at 10 uM preincubated with enzyme for 5 mins prior to substrate addition measured after 5 mins by Ellman's method relative to control.
Experiment [4] addresses T1, Histamine H3 receptor. In words: Displacement of [125I]Iodoproxyfan from human histamine H3 receptor stably expressed in HEK293 cells after 60 mins. It counts as cell-based.
In experiment [5] the target is T1, Histamine H3 receptor. The experiment can be described thus: Displacement of [3H]-N-alpha-methylhistamine from human histamine H3 receptor stably expressed in HEK293 cell membrane after 90 mins.
For experiment [6], the target named is T2, Cholinesterase (Equus caballus, UniProt P81908).
Description: Inhibition of equine serum BChE using butyrylthiocholine iodide as substrate preincubated with enzyme for 5 mins prior to substrate addition measured after 5 mins by Ellman's method
The target in experiment [7] is T3, Acetylcholinesterase (Electrophorus electricus, UniProt O42275). The experiment can be described thus: Inhibition of electric eel AChE using acetylthiocholine iodide as substrate preincubated with enzyme for 5 mins prior to substrate addition measured after 5 mins by Ellman's method. On the technique in general: In Ellman's method for cholinesterases, released thiocholine reacts with DTNB.

The target in experiment [8] is T4, Acetylcholinesterase (Homo sapiens, UniProt P22303). In words: Non-competitive inhibition of recombinant human AChE using acetylthiocholine iodide as substrate by Cornish-Bowden plot analysis.
For experiment [9], the target named is T4, Acetylcholinesterase. The experiment can be described thus: Inhibition of recombinant human AChE using acetylthiocholine iodide as substrate preincubated with enzyme for 5 mins prior to substrate addition measured after 5 mins by Ellman's method.
Experiment [10] concerns the target T4, Acetylcholinesterase. In words: Non-competitive inhibition of recombinant human AChE using acetylthiocholine iodide as substrate by Lineweaver-Burk plot analysis.
The target in experiment [11] is T3, Acetylcholinesterase. In words: Non-competitive inhibition of electric eel AChE using acetylthiocholine iodide as substrate by Lineweaver-Burk plot analysis.
The target of experiment [12] is T2, Cholinesterase. The experiment can be described thus: Non-competitive inhibition of equine serum BChE using butyrylthiocholine iodide as substrate by Lineweaver-Burk plot analysis.

T4 sequence (P22303 whole entry): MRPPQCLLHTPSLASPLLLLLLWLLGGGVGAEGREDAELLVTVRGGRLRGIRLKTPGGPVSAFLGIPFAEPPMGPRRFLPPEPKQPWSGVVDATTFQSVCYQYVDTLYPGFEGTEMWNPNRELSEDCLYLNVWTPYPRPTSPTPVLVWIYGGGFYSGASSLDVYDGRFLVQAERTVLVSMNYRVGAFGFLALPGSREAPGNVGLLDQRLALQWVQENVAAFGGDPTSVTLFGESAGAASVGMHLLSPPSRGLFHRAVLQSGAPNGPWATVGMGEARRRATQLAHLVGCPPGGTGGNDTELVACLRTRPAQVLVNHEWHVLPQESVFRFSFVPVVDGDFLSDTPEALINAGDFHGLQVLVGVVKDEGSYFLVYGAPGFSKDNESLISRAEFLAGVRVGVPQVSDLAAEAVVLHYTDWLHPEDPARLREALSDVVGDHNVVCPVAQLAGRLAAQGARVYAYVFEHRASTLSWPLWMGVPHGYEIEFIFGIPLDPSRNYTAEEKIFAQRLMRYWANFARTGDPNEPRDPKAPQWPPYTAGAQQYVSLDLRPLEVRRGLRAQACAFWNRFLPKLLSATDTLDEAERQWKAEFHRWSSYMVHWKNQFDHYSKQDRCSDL
Cholinesterase (Equus caballus), sequence (P81908 whole entry): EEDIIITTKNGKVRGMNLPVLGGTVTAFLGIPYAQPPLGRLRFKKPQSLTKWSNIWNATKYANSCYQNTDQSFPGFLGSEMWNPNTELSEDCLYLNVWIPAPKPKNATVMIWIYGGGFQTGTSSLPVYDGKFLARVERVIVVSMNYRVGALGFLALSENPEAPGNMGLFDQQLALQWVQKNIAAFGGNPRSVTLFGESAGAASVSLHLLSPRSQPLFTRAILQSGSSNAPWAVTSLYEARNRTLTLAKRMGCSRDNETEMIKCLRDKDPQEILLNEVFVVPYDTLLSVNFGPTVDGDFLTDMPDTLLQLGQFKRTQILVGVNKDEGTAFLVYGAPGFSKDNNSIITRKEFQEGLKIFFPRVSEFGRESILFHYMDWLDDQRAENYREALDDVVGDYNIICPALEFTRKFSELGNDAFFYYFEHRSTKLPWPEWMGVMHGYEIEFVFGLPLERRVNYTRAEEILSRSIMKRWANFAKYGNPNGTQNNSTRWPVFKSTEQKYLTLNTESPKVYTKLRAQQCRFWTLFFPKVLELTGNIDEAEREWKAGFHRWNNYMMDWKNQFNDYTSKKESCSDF
T2 sequence (P81908 whole entry): as above
Acetylcholinesterase (Electrophorus electricus), sequence (O42275 24-633 limits assumed): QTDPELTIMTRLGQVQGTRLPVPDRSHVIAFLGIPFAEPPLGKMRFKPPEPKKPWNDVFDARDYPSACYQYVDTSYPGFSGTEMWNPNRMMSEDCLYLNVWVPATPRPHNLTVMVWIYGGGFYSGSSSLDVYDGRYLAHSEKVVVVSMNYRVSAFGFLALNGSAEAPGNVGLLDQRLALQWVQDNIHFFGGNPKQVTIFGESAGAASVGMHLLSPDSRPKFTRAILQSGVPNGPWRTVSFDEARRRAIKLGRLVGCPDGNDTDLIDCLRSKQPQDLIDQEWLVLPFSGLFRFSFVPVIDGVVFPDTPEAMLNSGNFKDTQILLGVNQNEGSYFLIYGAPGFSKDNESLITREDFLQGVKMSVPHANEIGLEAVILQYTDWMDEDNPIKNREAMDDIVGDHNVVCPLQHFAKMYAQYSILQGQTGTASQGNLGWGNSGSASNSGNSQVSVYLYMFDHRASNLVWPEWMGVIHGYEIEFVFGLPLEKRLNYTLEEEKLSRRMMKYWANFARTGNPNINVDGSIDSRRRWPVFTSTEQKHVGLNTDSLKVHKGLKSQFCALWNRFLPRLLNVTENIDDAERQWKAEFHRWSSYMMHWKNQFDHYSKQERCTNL
T3 sequence (O42275 whole entry): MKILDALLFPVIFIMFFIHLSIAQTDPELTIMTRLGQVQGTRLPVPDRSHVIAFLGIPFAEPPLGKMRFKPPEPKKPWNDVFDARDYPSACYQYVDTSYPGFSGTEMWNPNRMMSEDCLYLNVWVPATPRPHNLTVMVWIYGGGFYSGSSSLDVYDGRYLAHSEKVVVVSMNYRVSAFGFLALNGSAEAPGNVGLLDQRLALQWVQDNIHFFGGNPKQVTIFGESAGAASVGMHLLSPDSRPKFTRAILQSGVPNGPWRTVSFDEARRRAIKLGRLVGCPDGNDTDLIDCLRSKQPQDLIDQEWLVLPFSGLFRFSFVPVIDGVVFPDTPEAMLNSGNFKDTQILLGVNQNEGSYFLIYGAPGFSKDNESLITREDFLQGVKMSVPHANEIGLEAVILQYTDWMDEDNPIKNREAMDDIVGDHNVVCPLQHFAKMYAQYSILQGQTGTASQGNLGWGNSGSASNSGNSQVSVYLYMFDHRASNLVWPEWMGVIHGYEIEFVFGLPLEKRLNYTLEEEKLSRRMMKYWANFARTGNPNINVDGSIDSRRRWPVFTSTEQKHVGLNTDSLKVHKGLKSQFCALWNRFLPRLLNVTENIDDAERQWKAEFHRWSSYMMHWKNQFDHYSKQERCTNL
T1 sequence (Q9Y5N1 whole entry): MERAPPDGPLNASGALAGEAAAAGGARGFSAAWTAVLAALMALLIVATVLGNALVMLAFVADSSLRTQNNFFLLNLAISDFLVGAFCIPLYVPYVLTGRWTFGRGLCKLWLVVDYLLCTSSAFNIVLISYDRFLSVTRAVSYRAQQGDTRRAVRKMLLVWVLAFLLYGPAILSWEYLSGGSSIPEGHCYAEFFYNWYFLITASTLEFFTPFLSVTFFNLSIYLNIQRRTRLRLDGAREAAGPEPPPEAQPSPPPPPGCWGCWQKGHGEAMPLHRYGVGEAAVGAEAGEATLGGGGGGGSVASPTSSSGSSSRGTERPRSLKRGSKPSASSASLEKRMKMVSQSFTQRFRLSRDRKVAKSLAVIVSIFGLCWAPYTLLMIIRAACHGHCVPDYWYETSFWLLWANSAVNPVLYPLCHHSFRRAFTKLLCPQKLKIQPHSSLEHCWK

Take `c1ccc(CCCOCCCN2CCN(Cc3ccccc3)CC2)cc1`: the inhibition (as a rule, the percentage by which the read-out fell short of the control) came out at 33.9% in experiment [1] and 18.8% in experiment [3]. The inhibition constant (Ki) (as a rule, a measure of affinity in units of concentration, obtained from inhibition or displacement) in [2] is over 1000 nM.

As for `O=C(c1ccc(OCCCN2CCN(c3ccccc3)CC2)cc1)C1CC1`, the inhibition in [1] amounted to 11.2%; in experiment [3] it was 7.58%. In experiment [4], this compound displayed a Ki of 111 nM.

For `O=C(c1ccc(OCCCN2CCN(C/C=C/c3ccccc3)CC2)cc1)C1CC1`, the results for the inhibition in [1] and in experiment [3] were 38.4% and 8.85%, respectively. Further, the inhibitory constant (Ki) in experiment [2] was 83 nM.

`C(=C\c1ccccc1)/CN1CCN(CCCOCCCc2ccccc2)CC1`: the inhibition in experiment [1] amounted to 37.8%; in [3], 0%. Besides, the Ki in experiment [2] worked out at 690 nM.

On to `CCOc1ccccc1N1CCN(CCCOCCCc2ccccc2)CC1`, for which the inhibition in experiment [1] was found to be 46%; in [3], 3.36%. Moreover, the inhibition constant (Ki) in experiment [2] was over 1000 nM.

Turning to `CC1CCCN(CCCCCCOc2ccc3c(c2)C(=O)CC(c2ccccc2)O3)C1` (centres undefined), the inhibition in experiment [1] came out at 90.3%; in experiment [3] it was 91.5%. Also, in experiment [5], the Ki stood at 523 nM. In addition, the figures for the IC50 in [6] and in [7] were 1900 nM and 800 nM, respectively.

`CCc1ccc(OCCCCCCN2CCC(C)CC2)cc1`: the inhibition was found to be 75.1% in experiment [1] and 23.5% in experiment [3]. Moreover, the Ki in [5] was 181 nM. In addition, the IC50 (as a rule, the point on the concentration scale where inhibition reaches its midpoint) in experiment [6] stood at 3920 nM.

Turning to `Clc1ccc(CCCOCCCN2CCCCC2)cc1`, the inhibition is 55.7% in experiment [1] and 3.04% in experiment [3].

As for `Cc1ccc2oc(-c3ccc(OCCCCCCN4CCCCC4)cc3)cc(=O)c2c1`, the inhibition in [1] was determined as 99.6%; in experiment [3] it was 95.6%. For the same compound, the inhibition entry in experiment [8] is “Active”. The figures for the Ki in experiment [5] and in [10] were 228 nM and 129 nM, respectively. In addition, the IC50 in experiment [6] came to 760 nM; in [7], 500 nM; in [9] it was 360 nM.

For `CCc1ccc(OCCCCCCN2CCCCCC2)cc1`, the results for the inhibition in experiment [1] and in experiment [3] were 85.7% and 30.8%, respectively. For the same compound, affinity in experiment [5] was put at a Ki of 84.3 nM. For the same compound, half-maximal inhibition in experiment [6] (IC50) was put at 1900 nM.

In the case of `Cc1ccc2oc(-c3ccc(OCCCCCCN4CCCCCC4)cc3)cc(=O)c2c1`, the inhibition was determined as 99.5% in experiment [1] and 95.9% in experiment [3]. The Ki was determined as 160 nM in experiment [5], 176 nM in experiment [11] and 281 nM in [12]. The concentration for half-maximal inhibition (IC50) in [6] came out at 440 nM; in experiment [7] it was 460 nM; in experiment [9] it was 480 nM.

In the case of `Cc1ccc2oc(-c3ccc(OCCCCCCN4CCCC(C)C4)cc3)cc(=O)c2c1` (centres undefined), the inhibition in experiment [1] amounted to 99.4%; in [3], 94%. For the same compound, in experiment [5], the affinity corresponds to a Ki of 60 nM. The values for the half-inhibitory concentration (IC50) in experiment [6] and in experiment [7] were 1090 nM and 800 nM, respectively.

`O=C(c1ccccc1Cl)N1CCN(CCCOCC2CCC2)CC1`: the inhibition in experiment [1] and in [3] was 0% each time. In addition, the inhibitory constant (Ki) in experiment [2] was over 1000 nM.

(Values after ChEMBL document CHEMBL4373738, “Search for new multi-target compounds against Alzheimer's disease among histamine H3 receptor ligands” (Eur J Med Chem, 2020).)
